Assay results published in patent publication US12215093B2, “Bicyclic carboxamides and methods of use thereof” (Tempest Therapeutics, Inc., priority 2018, dated 2025).

How the values were obtained:
[1] = target: T1, EP4 (Homo sapiens, UniProt P35408); experiment: Functional calcium flux assay, EP4; assay type: cell-based; details: stably transfected HEK293 cells; PGE2 10 nM; read-out: EP4 Ca2+-flux assay IC50
T1 construct: host or cells: stably transfected HEK293 cells co-expressing a promiscuous G protein and a clytin variant
Procedure: Each receptor subtype has an additional promiscuous G protein added in order to couple the aforementioned receptor to the calcium signaling pathway. The parental cell line used also expresses a novel variant of clytin, a calcium-activated photo-protein, to enable sensitive luminescent detection. Briefly, cells were plated at 50,000 cells-per-well in black, clear bottom 96-well plates. The plated cells were allowed to sit at room temperature for 30 min prior to transferring to a humidified, 37° C., 5% CO2 incubator for 18 to 24 h. Assay buffer (HBSS with 20 mM HEPES) and loading buffer (assay buffer plus 10 μM coelenterazine) were prepared on the day of the assay. Assays were performed by aspirating media from the assay plate and washing once with assay buffer, then replacing with loading buffer and allowing the cells to incubate for 1.5 h at room temperature. Compounds were prepared in assay buffer at a 3× final concentration in non-binding plates. Compounds were added to the cell plates and incubated for 30 min at room temperature. The prostanoid receptor ligand PGE2 was prepared at a 4× dilution ratio for a final concentration of 10 nM. Plates were run on a Flexstation™ using a 100 ms integration luminescence protocol for a total of 60 sec with ligand addition at 15 sec. Data were obtained from relative light units as measured by area under the curve.

[2] = target: EP2 (Homo sapiens, UniProt P43116); experiment: cell-based;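 note: functional calcium flux assay in stably transfected HEK293 cells expressing EP2 coupled via a promiscuous G protein, clytin luminescence read as area under the curve, 30 min compound preincubation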
Chain of EP2 (P43116 whole entry): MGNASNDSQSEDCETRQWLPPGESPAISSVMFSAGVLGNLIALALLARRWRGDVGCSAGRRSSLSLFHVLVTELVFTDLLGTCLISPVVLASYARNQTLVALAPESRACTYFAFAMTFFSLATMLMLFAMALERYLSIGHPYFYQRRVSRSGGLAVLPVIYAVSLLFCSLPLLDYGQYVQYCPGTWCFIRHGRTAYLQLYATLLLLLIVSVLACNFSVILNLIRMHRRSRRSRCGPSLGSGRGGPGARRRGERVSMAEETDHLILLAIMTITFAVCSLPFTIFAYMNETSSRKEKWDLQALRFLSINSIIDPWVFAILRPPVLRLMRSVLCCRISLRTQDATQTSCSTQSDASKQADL

T1 sequence (P35408 whole entry): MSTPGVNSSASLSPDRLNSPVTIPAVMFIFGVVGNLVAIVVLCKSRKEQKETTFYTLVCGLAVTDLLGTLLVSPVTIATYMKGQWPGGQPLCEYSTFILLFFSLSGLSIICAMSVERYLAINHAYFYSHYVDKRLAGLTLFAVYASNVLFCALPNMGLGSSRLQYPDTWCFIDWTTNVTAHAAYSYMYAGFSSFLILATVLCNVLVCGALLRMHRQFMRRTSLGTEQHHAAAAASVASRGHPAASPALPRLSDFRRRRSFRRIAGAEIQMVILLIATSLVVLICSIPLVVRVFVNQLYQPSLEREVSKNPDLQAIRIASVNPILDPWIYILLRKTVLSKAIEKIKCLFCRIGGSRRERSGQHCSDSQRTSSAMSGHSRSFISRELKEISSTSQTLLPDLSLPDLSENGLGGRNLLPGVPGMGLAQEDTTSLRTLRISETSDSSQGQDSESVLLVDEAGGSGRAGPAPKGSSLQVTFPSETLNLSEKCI

| IC50 [1] [nM] | IC50 [2] [nM] | Compound |
| --- | --- | --- |
| 3.9 | 26 | [2H]C([2H])([2H])C([2H])(c1ccc(-c2ccccc2)cc1)n1ncc2c(Cl)ccc(C(=O)NC3CC4(C3)CC(C(=O)O)C4)c21 (racemic) [Example 166, (Sa)-6-(1-((racemic)-1-([1,1′-Biphenyl]-4-yl)ethyl-1,2,2,2-d4)-4-chloro-1H-indazole-7-carboxamido)spiro[3.3]heptane-2-carboxylic acid] |
| < 1 | < 25 | COc1cc(-c2ccc(Cn3ncc4cc(Cl)cc(C(=O)NC5CC6(C5)CC(C(=O)O)C6)c43)cc2)ccn1 (stereo not drawn) [Example 135, (Sa)-6-(5-Chloro-1-(4-(2-methoxypyridin-4-yl)benzyl)-1H-indazole-7-carboxamido)spiro[3.3]heptane-2-carboxylic acid] |
| < 1 | 34 | O=C(NC1CC2(C1)CC(C(=O)O)C2)c1ccc(F)c2ccn(Cc3ccc(OC(F)(F)F)cc3)c12 (racemic) [Example 1, (racemic)-6-(4-Fluoro-1-(4-(trifluoromethoxy)benzyl)-1H-indole-7-carboxamido)spiro[3.3]heptane-2-carboxylic acid] |
| < 1 | < 25 | COc1cc(C#N)cc(-c2ccc(Cn3ccc4c(F)ccc(C(=O)NC5CC6(C5)CC(C(=O)O)C6)c43)cc2)c1 (racemic) [Example 20, (racemic)-6-(1-((3′-cyano-5′-methoxy-[1,1′-biphenyl]-4-yl)methyl)-4-fluoro-1H-indole-7-carboxamido)spiro[3.3]heptane-2-carboxylic acid] |
| < 1 | 33 | O=C(O)CC1CC2(C1)CC(NC(=O)c1cc(F)cc3cnn(Cc4ccc(-c5ccccc5)cc4)c13)C2 (racemic) [Example 107, (racemic)-2-(6-(1-([1,1′-biphenyl]-4-ylmethyl)-5-fluoro-1H-indazole-7-carboxamido)spiro[3.3]heptan-2-yl)acetic acid] |
| < 1 | < 25 | CC(c1ccc(-c2ccccc2)cc1)n1ncc2c(Cl)ccc(C(=O)NC3CC4(C3)CC(C(=O)O)C4)c21 (single isomer, unassigned) [Example 130, (Sa)-6-(1-((R) or (S)-1-([1,1′-biphenyl]-4-yl)-ethyl)-4-chloro-1H-indazole-7-carboxamido)spiro[3.3]heptane-2-carboxylic acid] |
| 1 | 60 | O=C(NC1CC2(C1)CC(C(=O)O)C2)c1ccc(F)c2ccn(Cc3ccc(-c4ccc(OC5COC5)cc4)cc3)c12 (racemic) [Example 23, (racemic)-6-(4-Fluoro-1-((4′-(oxetan-3-yloxy)-[1,1′-biphenyl]-4-yl)methyl)-1H-indole-7-carboxamido)spiro[3.3]heptane-2-carboxylic acid] |
| < 1 | 34 | COc1ccccc1-c1ccc(Cn2ccc3c(F)ccc(C(=O)NC4CC5(C4)CC(C(=O)O)C5)c32)cc1 (racemic) [Example 18, (racemic)-6-(4-fluoro-1-((2′-methoxy-[1,1′-biphenyl]-4-yl)methyl)-1H-indole-7-carboxamido)spiro[3.3]heptane-2-carboxylic acid] |
| 2.9 | < 25 | O=C(NC1CC2(C1)CC(C(=O)O)C2)c1ccc(Cl)c2cnn(C3(c4ccc(-c5ccccc5)cc4)COC3)c12 (stereo not drawn) [Example 176, (Sa)-6-(1-(3-([1,1′-Biphenyl]-4-yl)oxetan-3-yl)-4-chloro-1H-indazole-7-carboxamido)spiro[3.3]heptane-2-carboxylic acid] |
| < 1 | < 25 | COc1cc(-c2ccc(Cn3ccc4c(F)ccc(C(=O)NC5CC6(C5)CC(C(=O)O)C6)c43)cc2)ccc1F (racemic) [Example 19, (racemic)-6-(4-fluoro-1-((4′-fluoro-3′-methoxy-[1,1′-biphenyl]-4-yl)methyl)-1H-indole-7-carboxamido)spiro[3.3]heptane-2-carboxylic acid] |
| < 1 | < 25 | [2H]C([2H])([2H])Oc1cccc(-c2ccc(Cn3ccc4c(F)ccc(C(=O)NC5CC6(C5)CC(C(=O)O)C6)c43)cc2)c1 (stereo not drawn) [Example 52, (Sa)-6-(4-fluoro-1-((3’-methoxy-d3-[1,1′-biphenyl]-4-yl)methy1)-1H-indole-7-carboxamido)spiro[3.3]heptane-2-carboxylic acid] |
| < 1 | 39 | N#Cc1ccc(-c2ccc(Cn3ccc4c(F)ccc(C(=O)NC5CC6(C5)CC(C(=O)O)C6)c43)cc2)cc1 (racemic) [Example 13, (racemic)-6-(1-((4′-cyano-[1,1′-biphenyl]-4-yl)methyl)-4-fluoro-1H-indole-7-carboxamido)spiro[3.3]heptane-2-carboxylic acid] |
| < 1 | < 25 | O=C(NC1CC2(C1)CC(C(=O)O)C2)c1ccc(F)c2ccn(Cc3ccc(-c4ccccc4)cc3F)c12 (stereo not drawn) [Example 66, (Sa)-6-(4-Fluoro-1-((3-fluoro-[1,1′-biphenyl]-4-yl)methyl)-1H-indole-7-carboxamido)spiro[3.3]heptane-2-carboxylic acid] |
| < 1 | < 25 | COc1cccc(-c2ccc(Cn3ccc4c(OC)ncc(C(=O)NC5CC6(C5)CC(C(=O)O)C6)c43)cc2)n1 (stereo not drawn) [Example 92, (Sa)-6-(4-Methoxy-1-(4-(6-methoxypyridin-2-yl)benzyl)-1H-pyrrolo[3,2-c]pyridine-7-carboxamido)spiro[3.3]heptane-2-carboxylic acid] |
| 8.9 | 81 | CNC(=O)c1cc(-c2ccc(Cn3ncc4c(Cl)ccc(C(=O)NC5CC6(C5)CC(F)(C(=O)O)C6)c43)cc2)ccn1 (racemic) [Example 102, (racemic)-6-(4-chloro-1-(4-(2-(methylcarbamoyl)pyridin-4-yl)benzyl)-1H-indazole-7-carboxamido)-2-fluorospiro[3.3]heptane-2-carboxylic acid] |
| < 1 | 72 | CCOc1cc(-c2ccc(Cn3ccc4c(F)ccc(C(=O)NC5CC6(C5)CC(C(=O)O)C6)c43)cc2)ccn1 (racemic) [Example 36, (Racemic)-6-(1-(4-(2-ethoxypyridin-4-yl)benzyl)-4-fluoro-1H-indole-7-carboxamido)spiro[3.3]heptane-2-carboxylic acid] |
| < 1 | 61 | COc1cccc(-c2ccc(Cn3ccc4c(F)ccc(C(=O)NC5CC6(CC(CC(=O)O)C6)C5)c43)cc2)n1 (stereo not drawn) [Example 150, (Ra)-2-(6-(4-fluoro-1-(4-(6-methoxypyridin-2-yl)benzyl)-1H-indole-7-carboxamido)spiro[3.3]heptan-2-yl)acetic acid] |
| 1.2 | 38 | CS(=O)(=O)NC(=O)C1CC2(CC(NC(=O)c3ccc(F)c4ccn(Cc5ccc(OC(F)(F)F)cc5)c34)C2)C1 (stereo not drawn) [Example 111, (Sa)-4-Fluoro-N-(6-((methylsulfonyl)carbamoyl)spiro[3.3]heptan-2-yl)-1-(4-(trifluoromethoxy)benzyl)-1H-indole-7-carboxamide] |
| < 1 | 76 | CCOc1cccc(-c2ccc(Cn3ccc4c(F)ccc(C(=O)NC5CC6(C5)CC(C(=O)O)C6)c43)cc2)n1 (stereo not drawn) [Example 56, (Sa)-6-(1-(4-(6-Ethoxypyridin-2-yl)benzyl)-4-fluoro-1H-indole-7-carboxamido)spiro[3.3]heptane-2-carboxylic acid] |
| 6.6 | < 25 | CC(c1ccc(-c2ccccc2)cc1)n1ncc2c(Cl)ccc(C(=O)NC3CC4(C3)CC(C(=O)O)C4)c21 (racemic) [Example 121, (Sa)-6-(1-((racemic)-1-([1,1′-biphenyl]-4-yl)-ethyl)-4-chloro-1H-indazole-7-carboxamido)spiro[3.3]heptane-2-carboxylic acid] |
| < 1 | 94 | O=C(NC1CC2(C1)CC(C(=O)O)C2)c1ccc(Cl)c2ccn(Cc3ccc(N4CCOCC4)cc3)c12 (stereo not drawn) [Example 71, (Sa)-6-(4-Chloro-1-(4-morpholinobenzyl)-1H-indole-7-carboxamido)spiro[3.3]heptane-2-carboxylic acid] |
| < 1 | < 25 | O=C(NC1CC2(C1)CC(C(=O)O)C2)c1cccc2cnn(Cc3ccc(OC(F)(F)F)cc3)c12 (racemic) [Example 32, (racemic)-6-(1-(4-(Trifluoromethoxy)benzyl)-1H-indazole-7-carboxamido)spiro[3.3]heptane-2-carboxylic acid] |
| < 1 | < 25 | CCOc1cccc(-c2ccc(Cn3ncc4c(Cl)ccc(C(=O)NC5CC6(C5)CC(C(=O)O)C6)c43)cc2)n1 (stereo not drawn) [Example 83, (Sa)-6-(4-Chloro-1-(4-(6-ethoxypyridin-2-yl)benzyl)-1H-indazole-7-carboxamido)spiro[3.3]heptane-2-carboxylic acid] |
| 1 | 51 | O=C(NC1CC2(C1)CC(C(=O)O)C2)c1ccc(F)c2ccn(Cc3ccc(-c4ccc(OC5COC5)c(Cl)c4)cc3)c12 (racemic) [Example 21, (racemic)-6-(1-((3′-Chloro-4′-(oxetan-3-yloxy)-[1,1′-biphenyl]-4-yl)methyl)-4-fluoro-1H-indole-7-carboxamido)spiro[3.3]heptane-2-carboxylic acid] |
| < 1 | 43 | CCOc1cccc(-c2ccc(Cn3ccc4c(F)ccc(C(=O)NC5CC6(C5)CC(C(=O)O)C6)c43)cc2)c1 (stereo not drawn) [Example 54, (Sa)-6-(1-((3’-ethoxy-[1,1′-biphenyl]-4-yl)methyl)-4-fluoro-1H-indole-7-carboxamido)spiro[3.3]heptane-2-carboxylic acid] |
| < 1 | < 25 | COc1ccc(-c2ccc(Cn3ccc4c(F)ccc(C(=O)NC5CC6(C5)CC(C(=O)O)C6)c43)cc2)cc1 (racemic) [Example 12, (racemic)-6-(4-fluoro-1-((4′-methoxy-[1,1′-biphenyl]-4-yl)methyl)-1H-indole-7-carboxamido)spiro[3.3]heptane-2-carboxylic acid] |
| < 1 | 45 | CC(C)(C)c1ccc(Cn2ccc3c(C#N)ccc(C(=O)NC4CC5(C4)CC(C(=O)O)C5)c32)cc1 (racemic) [Example 27, (racemic)-6-(1-(4-(tert-Butyl)benzyl)-4-cyano-1H-indole-7-carboxamido)spiro[3.3]heptane-2-carboxylic acid] |
